Measurements reported in patent US12559497B2, “Imidazopiperazine inhibitors of transcription activating proteins” (Board of Regents, The University of Texas System, priority 2020, dated 2026).

Legend:
[1] = biological target: T1, BRD4 (49-170) bromodomain (Homo sapiens, UniProt O60885); assay: BRD4 AlphaScreen assay; details: binding to biotin-H4 (1-21) Ac-K5/8/12/16
T1 construct: The GST tagged bromodomains of CBP (1081-1197) and BRD4 (49-170) were obtained from BPS Bioscience; purchased BPS Bioscience
Method: (§1) Specific binding of the CBP or BRD4 bromodomain to the acetylated peptide derived from the H4 histone substrate (tetra acetylated H4 (1-21) Ac—K5/8/12/16) was measured in absence or presence of inhibitors. The GST tagged bromodomains of CBP (1081-1197) and BRD4 (49-170) were obtained from BPS Bioscience and binding to the biotinylated H4 (1-21) Ac—K5/8/12/16 (AnaSpec. 64989) was assessed via AlphaScreen technology (Perkin Elmer).
(§2) BRD4 AlphaScreen assay: The binding of 2.5 nM of BRD4 (49-170) to 10 nM biotin-H4 (1-21) Ac—K5/8/12/16 (AnaSpec. 64989) was assessed following the same procedure described for the CBP assay. The standard dose response curves were fitted by Genedata Screener software using the variable-slope model: Signal=Signalnegative control+(SignalDMSO control−Signalnegative control)/(1+(IC50/Dose)∧Hill slope).
(§3) Only Signal and Dose in the equation were treated as known values.

[2] = In vivo pharmacokinetics after a single dose, dog; details: male, plasma, Beagle dog
Method: (§4) IV (intravenous) doses were formulated in 20% DMSO+60% PEG400+20% water. PO (per os) doses were formulated in 0.5% methylcellulose in water.
(§5) Dog: Male Beagle dogs (purchased from Beijing Marshall Biotechnology Co., Ltd) weighing 7-10 kg were used for studies. Animals were fasted overnight and fed 4 h postdose. Test article was administered to dogs via the cephalic vein (IV doses) or oral gavage (PO doses). Blood samples were collected via the saphenous vein or cephalic vein from all animals at predose and 0.083, 0.25, 0.5, 1, 2, 4, 8, and 24 h postdose into tubes containing the anticoagulant K2EDTA. Plasma was separated from the blood by centrifugation at 4° C. and stored at −70° C. until analysis. Test article concentrations in plasma were quantified using a liquid chromatography with tandem mass spectrometry (LC-MS/MS) method.

DOHH2 cells = assay: DOHH2 Proliferation Assay; type: cell-based; details: Homo sapiens, DOHH-2, 168 h; CellTiter-Glo viability on day 7
Method: DOHH2 Proliferation Assay: On day 1, 1000 DOHH2 cells were seeded to a 384-well TC plate (PerkinElmer #6007680) in 40 μL RPMI 1640 media, followed by the addition of CBP inhibitors except for column 13 where 3.3 μM staurosporine was added as negative control. DMSO was 0.1% in all the wells. The cells were lysed in and counted viability by 40 μL CellTiter-Glo (Promega #G9243) on day 7. The luminescent signal was quantified by Envision Multilabel plate reader and the standard dose response curves were fitted by Genedata Screener software using the variable-slope model: Signal=Signalnegative control+(SignalDMSO control−Signalnegative control)/(1+(IC50/Dose)∧Hill slope).
as §3

[3] = In vivo pharmacokinetics after a single dose, monkey; details: male, plasma, Cynomolgus monkey
Method: as §4
as §5, with “Monkey:” for “Dog:”, “Cynomolgus monkeys” for “Beagle dogs”, “Hainan Jingang Biotech.” for “Beijing Marshall Biotechnology”, “3-5” for “7-10”, “monkeys” for “dogs”, “nasal” for “oral”

[4] = Metabolic stability in dog liver microsomes; type: in vitro ADME; details: pH 7.4, read-out: Liver microsomal clearance (t1/2)
Method: (§6) Microsomal stability. Microsomal stability assays were conducted on a Beckmann Biomek FXp laboratory automation system. The liver microsomal incubation mixture consisted of liver microsomes (0.5 mg microsomal protein/mL), the Compound (1 μM), MgCl2 (3 mM), and EDTA (1 mM) in potassium phosphate buffer (100 mM, pH 7.4). Midazolam and Ketanserin were used as the assay control substrates. The reaction was initiated with the addition of an NADPH regeneration solution (1.3 mM NADPH) and maintained at 37° C. with shaking. At five time points ranging from 0 to 45 min, aliquots (50 μL) were removed and quenched with acetonitrile (100 μL) containing an internal standard (imipramine). After vortex and centrifugation, samples were analyzed by LC-MS/MS. Calculation of the in vitro half-lives and clearance followed literature guidelines.

[5] = Metabolic stability in mouse liver microsomes; type: in vitro ADME, CD-1 mouse; details: CD-1, liver microsomes, pH 7.4, 0.5 mg/mL microsomes, NADPH, 45 minutes, 37° C., read-out: Half-life in liver microsomes (t1/2)
Method: as §6

[6] = Metabolic stability in rat liver microsomes; type: in vitro ADME; details: Sprague Dawley, pH 7.4, 0.5 mg/mL microsomes, NADPH, 45 minutes, 37° C., read-out: Half-life in liver microsomes (t1/2)
Method: as §6

[7] = Metabolic stability in human liver microsomes; type: in vitro ADME; details: pH 7.4, 0.5 mg/mL microsomes, NADPH, 45 minutes, 37° C., read-out: Half-life in liver microsomes (t1/2)
Method: as §6

[8] = In vivo pharmacokinetics after a single dose, rat; details: male, plasma, Sprague-Dawley rat
Method: as §4
Rat: Male rats (SD strain, purchased from Shanghai JH Laboratory Animal Co. LTD) weighing 200-300 g were used for studies. Animals were fasted overnight and fed 4 h postdose. Water was available ad libitum for all animals. Test article was dosed via dorsal foot vein (IV doses) or oral gavage (PO doses). Blood samples were collected via tail vein from all animals at predose and at 0.083, 0.25, 0.5, 1, 2, 4, 8, and 24 h postdose into tubes containing the anticoagulant K2EDTA. Plasma was separated from the blood by centrifugation at 4° C. and stored at −70° C. until analysis. Test article concentrations in plasma were quantified using a liquid chromatography with tandem mass spectrometry (LC-MS/MS) method.

[9] = Metabolic stability in monkey liver microsomes; type: in vitro ADME; details: pH 7.4, read-out: Liver microsomal clearance (t1/2)
Method: as §6

[10] = biological target: T2, GST-CBP (1081-1197) bromodomain (Homo sapiens, UniProt Q92793); assay: CBP AlphaScreen assay; details: binding to biotin-H4 (1-21) Ac-K5/8/12/16
T2 construct: The GST tagged bromodomains of CBP (1081-1197) and BRD4 (49-170) were obtained from BPS Bioscience; purchased BPS Bioscience
T2 sequence (Q92793 1081-1197): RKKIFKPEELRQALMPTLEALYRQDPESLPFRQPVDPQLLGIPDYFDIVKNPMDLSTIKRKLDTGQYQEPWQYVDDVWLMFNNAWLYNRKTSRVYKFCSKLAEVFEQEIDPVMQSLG
Method: as §1
CBP AlphaScreen assay: 5 nM GST-CBP (1081-1197) and 20 nM biotin-H4 (1-21) Ac—K5/8/12/16 (AnaSpec. 64989) were incubated with varying concentrations of CBP inhibitors in 15 μL of buffer containing 50 mM HEPES 7.5, […], 1 mM TCEP, and 0.003% Tween-20. After 30 minutes incubation at room temperature, 15 μL of detection buffer (BPS Bio. 33006) containing 7 μg/mL of Glutathione AlphaLisa acceptor beads (Perkin Elmer AL109) and 14 μg/mL of Streptavidin donor beads (Perkin Elmer 676002) was then added to the previous mixture. The reaction was incubated for an additional 2 hours at room temperature, and the AlphaScreen signal was quantified using the Envision Multilabel plate reader. As negative control, GST-CBP (1081-1197) was incubated with the non-acetylated biotin-H4 (1-21) peptide (AnaSpec. 62555) and in presence of 0.25% of final DMSO concentration.
as §2, §3

[11] = In vivo pharmacokinetics after a single dose, mouse; parameters: species or system Female CD-1 Mice; details: for mouse in vivo clearances compared to the structural analogs previously disclosed / mouse in vivo half-lives compared to the structural analogs previously disclosed: in words; for clearance / half-life / Vd: plasma, Female CD-1 mice, single dose 0.2 or 0.3 mg/kg IV; for Vd: read-out: Vss
Method: as §4
Mouse: Female mice (CD1 strain, purchased from Shanghai JH Laboratory Animal Co. LTD) weighing 20-30 g were used for studies. Food and water were available to all animals ad libitum. The test article was dosed via tail vein (IV doses) or oral gavage (PO doses), respectively. Blood samples were collected from all animals at predose and at 0.083, 0.25, 0.5, 1, 2, 4, 8, and 24 h postdose into tubes containing the anticoagulant K2EDTA (3 animals per time point with 3 time points collected per animal). Plasma was separated from the blood by centrifugation at 4° C. and stored at −70° C. until analysis. Test article concentrations in plasma were quantified using a liquid chromatography with tandem mass spectrometry (LC-MS/MS) method.

[12] = 1 mg/kg IV single dose, read-out: Vss

Work on CC(=O)N1CCn2c(C3CCOCC3)nc(-c3cccc4cc(-c5cnc(C)s5)ncc34)c2C1 [Compound 1, 1-(1-(3-(2-methylthiazol-5-yl)isoquinolin-8-yl)-3-(tetrahydro-2H-pyran-4-yl)-5,6-dihydroimidazo[1,5-α]pyrazin-7 (8H)-yl)ethan-1-one] yielded an IC50 [1] of 13200 nM, a clearance ([2]; 1 mg/kg IV single dose) of 4.3 mL/min/kg and a half-life ([2]; 1 mg/kg IV single dose) of 9.74 h. It also gave a Vd [2, 12] of 3.38 L/kg, an AUC(0-t) ([2]; 3 mg/kg PO single dose) of 26.2 µM·h and a Cmax ([2]; 3 mg/kg PO single dose) of 2560 nM. For the same compound, the bioavailability ([2]; 3 mg/kg PO single dose) was 119%, the IC50 (DOHH2 cells) was 261 nM and the clearance ([3]; 1 mg/kg IV single dose) was 6.97 mL/min/kg. It also gave a half-life ([3]; 1 mg/kg IV single dose) of 4.74 h, a Vd [3, 12] of 2.28 L/kg and an AUC(0-t) ([3]; 3 mg/kg PO single dose) of 11.3 µM·h. The Cmax ([3]; 3 mg/kg PO single dose) was 1970 nM, the bioavailability ([3]; 3 mg/kg PO single dose) was 70.5% and the half-life at 1 μM [4] was 11.9 h. It also gave a half-life at 1 μM [5] of 6.55 h, a half-life at 1 μM [6] of 20.4 h and a half-life at 1 μM [7] of 5.17 h. The clearance ([8]; 1 mg/kg IV single dose) was 11.2 mL/min/kg, the half-life ([8]; 1 mg/kg IV single dose) was 3.82 h and the Vd [8, 12] was 2.31 L/kg. The AUC(0-t) ([8]; 30 mg/kg PO single dose) was 124 µM·h, the Cmax ([8]; 30 mg/kg PO single dose) was 23000 nM and the bioavailability ([8]; 30 mg/kg PO single dose) was 129%. The half-life at 1 μM [9] was 1.62 h, the IC50 [10] was 7 nM and the “mouse in vivo clearances compared to the structural analogs previously disclosed” value [11] was “dramatic decrease”. For the same compound, the “mouse in vivo half-lives compared to the structural analogs previously disclosed” value [11] was “increase”, the clearance [11] was 6.2 mL/min/kg and the half-life [11] was 2.99 h. The Vd [11] was 1.45 L/kg.
Work on CNC(=O)c1ccc(-c2cc3cccc(-c4nc(C5CC5)n5c4CN(C(C)=O)CC5)c3cn2)cn1 [Compound 2, 5-(8-(7-Acetyl-3-cyclopropyl-5,6,7,8-tetrahydroimidazo[1,5-α]pyrazin-1-yl)isoquinolin-3-yl)-N-methylpicolinamide] yielded an IC50 [1] of 25000 nM, an IC50 (DOHH2 cells) of 376 nM and an IC50 [10] of 15 nM.
For CNC(=O)c1ccc(-c2cc3cccc(-c4nc(C5CCOCC5)n5c4CN(C(C)=O)CC5)c3cn2)cn1 [Compound 3, 5-(8-(7-Acetyl-3-(tetrahydro-2H-pyran-4-yl)-5,6,7,8-tetrahydroimidazo[1,5-α]pyrazin-1-yl)isoquinolin-3-yl)-N-methylpicolinamide], the IC50 [1] was 15000 nM, the IC50 (DOHH2 cells) was 232 nM and the half-life at 1 μM [5] was 8.03 h. For the same compound, the half-life at 1 μM [6] was 5.03 h, the half-life at 1 μM [7] was 4.82 h and the IC50 [10] was 16 nM. For the same compound, the “mouse in vivo clearances compared to the structural analogs previously disclosed” value [11] was “dramatic decrease”, the “mouse in vivo half-lives compared to the structural analogs previously disclosed” value [11] was “increase” and the clearance [11] was 11.9 mL/min/kg. For the same compound, the half-life [11] was 2.55 h and the Vd [11] was 1.84 L/kg.
CNC(=O)c1ccc(-c2cc3cccc(-c4nc(C56CCC(CC5)OC6)n5c4CN(C(C)=O)CC5)c3cn2)cn1 [Compound 4, 5-(8-(7-acetyl-3-(2-oxabicyclo[2.2.2]octan-4-yl)-5,6,7,8-tetrahydroimidazo[1,5-α]pyrazin-1-yl)isoquinolin-3-yl)-N-methylpicolinamide] gave an IC50 [1] of 17000 nM, an IC50 (DOHH2 cells) of 676 nM and an IC50 [10] of 22 nM.
Work on CNC(=O)c1ccc(-c2cc3ccc(F)c(-c4nc(C5CCOCC5)n5c4CN(C(C)=O)CC5)c3cn2)cn1 [Compound 5, 5-(8-(7-Acetyl-3-(tetrahydro-2H-pyran-4-yl)-5,6,7,8-tetrahydroimidazo[1,5-α]pyrazin-1-yl)-7-fluoroisoquinolin-3-yl)-N-methylpicolinamide] yielded an IC50 [1] of 20400 nM, an IC50 (DOHH2 cells) of 216 nM and an IC50 [10] of 34 nM.
CC(=O)N1CCn2c(C3CCOCC3)nc(-c3c(F)ccc4cc(-c5cnc(C)s5)ncc34)c2C1 [Compound 6, 1-(1-(7-fluoro-3-(2-methylthiazol-5-yl)isoquinolin-8-yl)-3-(tetrahydro-2H-pyran-4-yl)-5,6-dihydroimidazo[1,5-α]pyrazin-7 (8H)-yl)ethan-1-one] gave an IC50 [1] of 22200 nM, an IC50 (DOHH2 cells) of 541 nM and an IC50 [10] of 14 nM.
CNC(=O)c1ccc(-c2cc3cccc(-c4nc(C5CCOCC5)n5c4CN(C(=O)NC)CC5)c3cn2)cn1 [Compound 8, reference compound] showed a half-life at 1 μM [5] of 10.2 h, a half-life at 1 μM [6] of 9 h and a half-life at 1 μM [7] of 7.7 h. For the same compound, the clearance [11] was 54.8 mL/min/kg, the half-life [11] was 0.588 h and the Vd [11] was 2 L/kg.
